In US20120071536A1, “N-[(2-AZABICYCLO[2.1.1]HEX-1-YL)-ARYL-METHYL]-BENZAMIDE DERIVATIVES, PREPARATION THEREOF, AND THERAPEUTIC USE THEREOF” (SANOFI, priority 2009, published 2012):
Structures can show the parent of a compound that is named as a salt.

Biological target: T1, native human transporter GlyT1 (Homo sapiens, UniProt P48067)
T1 construct: expressing the native human transporter GlyT1; endogenous in cells; host or cells: SK-N-MC cells (human neuroepithelial cells)
T1 sequence (P48067 1-706): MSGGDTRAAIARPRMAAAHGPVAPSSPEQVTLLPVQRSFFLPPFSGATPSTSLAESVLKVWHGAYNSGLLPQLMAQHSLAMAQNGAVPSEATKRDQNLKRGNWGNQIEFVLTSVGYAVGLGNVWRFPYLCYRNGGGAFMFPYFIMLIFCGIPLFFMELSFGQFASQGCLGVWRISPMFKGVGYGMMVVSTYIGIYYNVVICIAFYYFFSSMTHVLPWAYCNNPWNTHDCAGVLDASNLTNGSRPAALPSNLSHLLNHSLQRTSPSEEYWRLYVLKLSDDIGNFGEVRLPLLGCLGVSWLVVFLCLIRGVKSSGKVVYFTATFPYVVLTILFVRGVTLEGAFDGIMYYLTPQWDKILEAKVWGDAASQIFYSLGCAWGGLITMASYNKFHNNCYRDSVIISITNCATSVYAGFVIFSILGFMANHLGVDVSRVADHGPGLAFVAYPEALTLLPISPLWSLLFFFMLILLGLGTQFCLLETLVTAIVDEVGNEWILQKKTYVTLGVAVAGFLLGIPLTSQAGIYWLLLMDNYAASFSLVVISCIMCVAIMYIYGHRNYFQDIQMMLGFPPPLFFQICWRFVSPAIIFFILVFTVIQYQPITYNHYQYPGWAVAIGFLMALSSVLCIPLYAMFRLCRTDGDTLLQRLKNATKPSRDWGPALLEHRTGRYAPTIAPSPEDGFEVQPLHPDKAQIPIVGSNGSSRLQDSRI
Experiment: Uptake of [14C]glycine in SK-N-MC cells expressing the native human transporter GlyT1
Assay type: cell-based
Details: 10 μM [14C]glycine, 10 min at 37° C., pH 7.4, read-out: IC50 (concentration of the compound which reduces by 50% the specific uptake of glycine)
Experimental: Study of Glycine Transportation in SK-N-MC Cells Expressing the Native Human Transporter GlyT1.
The uptake of [^14C]glycine is studied in SK-N-MC cells (human neuroepithelial cells) expressing the native human transporter GlyT1 by measuring the radioactivity incorporated in the presence or absence of the test compound. The cells are cultured as a monolayer for 48 hours in plates pretreated with 0.02% fibronectin. On the day of the experiment, the culture medium is removed and the cells are washed with Krebs-HEPES (4-(2-hydroxyethyl)piperazine-1-ethanesulphonic acid) buffer at pH 7.4. After preincubation for 10 minutes at 37° C. in the presence either of buffer (control batch) or of test compound at various concentrations or of 10 mM of glycine (determination of the non-specific uptake), 10 μM of [^14C]glycine (specific activity 112 mCi/mmol) are subsequently added. Incubation is continued for 10 min at 37° C. and the reaction is halted by washing twice with pH 7.4 Krebs-HEPES buffer. The radioactivity incorporated by the cells is then estimated after adding 100 μl of liquid scintillant and stirring for 1 h. Counting is carried out on a Microbeta Tri-Lux™ counter. The effectiveness of the compound is determined by the IC50, the concentration of the compound which reduces by 50% the specific uptake of glycine, defined by the difference in radioactivity incorporated by the control batch and the batch which received the 10 mM glycine.

SMILES | IC50 [nM]
CSc1ccc(Cl)c(C(=O)NC(c2ccccc2)C23CC(CN2)C3)c1 (racemic) [Compound 11, N-[(2-Azabicyclo[2.1.1]hex-1-yl)(phenyl)methyl]-2-chloro-5-(methylsulphanyl)-benzamide] | 160
O=C(NC(c1ccccc1)C12CC(CN1)C2)c1cccc(C(F)(F)F)c1Cl (racemic) [Compound 5, N-[(2-azabicyclo[2.1.1]hex-1-yl)(phenyl)methyl]-2-chloro-3-(trifluoromethyl)benzamide hydrochloride (1:1)] | 26
Nc1ccc(C(NC(=O)c2cccc(C(F)(F)F)c2Cl)C23CC(CN2)C3)cc1 (racemic) [Compound 1, N-[(4-Aminophenyl)(2-azabicyclo[2.1.1]hex-1-yl)methyl]-2-chloro-3-(trifluoromethyl)-benzamide] | 1100

Other lines, results leading:

IC50 [nM] | SMILES
300 | O=C(NC(c1ccccc1)C12CC(CN1CC(F)(F)F)C2)c1c(Cl)ccc(C(F)(F)F)c1Cl (racemic) [Compound 23, 2,6-Dichloro-N-{(phenyl)[2-(2,2,2-trifluoroethyl)-2-azabicyclo[2.1.1]hex-1-yl]methyl}-3-(trifluoromethyl)benzamide]
21 | CN1CC2CC1(C(NC(=O)c1cccc(C(F)(F)F)c1Cl)c1ccccc1)C2.Cl (racemic) [Compound 18, 2-Chloro-N-[(2-methyl-2-azabicyclo[2.1.1]hex-1-yl)(phenyl)methyl]-3-(trifluoromethyl)benzamide hydrochloride (1:1)]
110 | CC(C)(O)CN1CC2CC1(C(NC(=O)c1c(Cl)ccc(C(F)(F)F)c1Cl)c1ccccc1)C2 (racemic) [Compound 22]
1.6 | CCc1ccccc1C(=O)NC(c1ccccc1)C12CC(CN1CC)C2 (racemic) [Compound 31, 2-Ethyl-N-[(2-ethyl-2-azabicyclo[2.1.1]hex-1-yl)(phenyl)methyl]benzamide]

Tested on: not given
Experiment: not given
Details: not given

SMILES | melting point [°C]
CSc1ccc(Cl)c(C(=O)NC(c2ccccc2)C23CC(CN2)C3)c1 (racemic) [Compound 11, N-[(2-Azabicyclo[2.1.1]hex-1-yl)(phenyl)methyl]-2-chloro-5-(methylsulphanyl)-benzamide] | 115 to 117
O=C(NC(c1ccc(F)cc1)C12CC(CN1)C2)c1cccc(C(F)(F)F)c1Cl (racemic) [Compound 16, N-[(2-Azabicyclo[2.1.1]hex-1-yl)(4-fluorophenyl)methyl]-2-chloro-3-(trifluoromethyl)-benzamide] | 172.5 to 173
Cc1cccc(C(NC(=O)c2cccc(C(F)(F)F)c2Cl)C23CC(CN2)C3)c1 (racemic) (as salt: HCl) [Compound 2, N-[(2-Azabicyclo[2.1.1]hex-1-yl)(m-tolyl)methyl]-2-chloro-3-(trifluoromethyl)benzamide] | 159.5 to 160.5
O=C(NC(c1ccccc1)C12CC(CN1)C2)c1c(Cl)ccc(C(F)(F)F)c1Cl (racemic) [Compound 8, N-[(2-Azabicyclo[2.1.1]hex-1-yl)(phenyl)methyl]-2,6-dichloro-3-(trifluoromethyl)-benzamide] | 80.5 to 81.5
Nc1ccc(C(NC(=O)c2cccc(C(F)(F)F)c2Cl)C23CC(CN2)C3)cc1 (racemic) (as salt: HCl) [Compound 1, N-[(4-Aminophenyl)(2-azabicyclo[2.1.1]hex-1-yl)methyl]-2-chloro-3-(trifluoromethyl)-benzamide] | 195 to 197
O=C(NC(c1ccc2ccccc2c1)C12CC(CN1)C2)c1cccc(C(F)(F)F)c1Cl (racemic) (as salt: HCl) [Compound 17, N-[(2-Azabicyclo[2.1.1]hex-1-yl)(naphth-2-yl)methyl]-2-chloro-3-(trifluoromethyl)-benzamide] | 135 to 170
CCS(=O)(=O)c1cc(C(=O)NC(c2ccccc2)C23CC(CN2)C3)c(OC)cc1Cl (racemic) (as salt: HCl) [Compound 15, N-[(2-Azabicyclo[2.1.1]hex-1-yl)(phenyl)methyl]-4-chloro-5-(ethanesulphonyl)-2-methoxybenzamide] | 232 to 233
COc1cccc(C(NC(=O)c2cccc(C(F)(F)F)c2Cl)C23CC(CN2)C3)c1 (racemic) (as salt: HCl) [Compound 3, N-[(2-Azabicyclo[2.1.1]hex-1-yl)(3-methoxyphenyl)methyl]-2-chloro-3-(trifluoro-methyl)benzamide] | 143 to 144
O=C(NC(c1ccccc1)C12CC(CN1)C2)c1cccc(C(F)(F)F)c1Cl (single isomer, unassigned; (-)) (as salt: HCl) [Compound 13, (−)N-[(2-Azabicyclo[2.1.1]hex-1-yl)(phenyl)methyl]-2-chloro-3-(trifluoromethyl)-benzamide] | 140 to 150

The remaining lines, values ahead:

melting point [°C] | SMILES
82 to 83 | O=C(NC(c1ccccc1)C12CC(CN1CC(F)(F)F)C2)c1c(Cl)ccc(C(F)(F)F)c1Cl (racemic) [Compound 23, 2,6-Dichloro-N-{(phenyl)[2-(2,2,2-trifluoroethyl)-2-azabicyclo[2.1.1]hex-1-yl]methyl}-3-(trifluoromethyl)benzamide]
168.5 to 169.5 | CN1CC2CC1(C(NC(=O)c1cccc(C(F)(F)F)c1Cl)c1ccccc1)C2.Cl (racemic) [Compound 18, 2-Chloro-N-[(2-methyl-2-azabicyclo[2.1.1]hex-1-yl)(phenyl)methyl]-3-(trifluoromethyl)benzamide hydrochloride (1:1)]
241 to 242 | CCc1ccccc1C(=O)NC(c1ccccc1)C12CC(CN1CC)C2 (racemic) (as salt: HCl) [Compound 31, 2-Ethyl-N-[(2-ethyl-2-azabicyclo[2.1.1]hex-1-yl)(phenyl)methyl]benzamide]
257 to 259 | CCN1CC2CC1(C(NC(=O)c1cccc(C(F)(F)F)c1Cl)c1ccccc1)C2 (single isomer, unassigned; (+)) (as salt: HCl) [Compound 26, (+)-2-Chloro-N-[(2-ethyl-2-azabicyclo[2.1.1]hex-1-yl)(phenyl)methyl]-3-(trifluoromethyl)benzamide]
153 to 154 | CCCN1CC2CC1(C(NC(=O)c1cc(Br)c(Cl)cc1N)c1ccccc1)C2 (racemic) (as salt: HCl) [Compound 21, 2-Amino-5-bromo-4-chloro-N-[(phenyl)(2-propyl-2-azabicyclo[2.1.1]hex-1-yl)methyl]-benzamide]
178.5 to 179 | CC(C)(O)CN1CC2CC1(C(NC(=O)c1c(Cl)ccc(C(F)(F)F)c1Cl)c1ccccc1)C2 (racemic) (as salt: HCl) [Compound 22]
240.5 to 241.5 | O=C(NC(c1ccccc1)C12CC(CN1CC1CC1)C2)c1cccc(C(F)(F)F)c1Cl (racemic) (as salt: HCl) [Compound 25, 2-Chloro-N-[(2-cyclopropylmethyl-2-azabicyclo[2.1.1]hex-1-yl)(phenyl)methyl]-3-(trifluoromethyl)benzamide]
273.5 to 274.5 | Cc1cccc(C)c1C(=O)NC(c1ccccc1)C12CC(CN1)C2 (racemic) (as salt: HCl) [Compound 27, N-[(2-Azabicyclo[2.1.1]hex-1-yl)(phenyl)methyl]-2,6-dimethylbenzamide]
